Reference: ChEMBL document CHEMBL4311992, “Discovery of 3-(((9H-purin-6-yl)amino)methyl)-4,6-dimethylpyridin-2(1H)-one derivatives as novel tubulin polymerization inhibitors for treatment of cancer” (Eur J Med Chem, 2019)
The source made the active and inactive calls. The calls are words filed in the database; no cut-off is given here.

Assays:
[1] = tested on: Serine/threonine-protein kinase Sgk1 (Homo sapiens), O00141 [S422D]; experiment: Inhibition of recombinant human SGK S422D mutant (60 to end residues) assessed as residual activity at 10 uM using GRPRTSSFAEGKK as substrate measured after 40 mins in presence of [gamma33P]ATP by scintillation counting method
[2] = biological target: Ribosomal protein S6 kinase alpha-1 (Homo sapiens) (UniProt Q15418); experiment: Inhibition of recombinant full-length human Rsk1 assessed as residual activity at 10 uM using KKKNRTLSVA as substrate measured after 40 mins in presence of [gamma33P]ATP by scintillation counting method
[3] = biological target: Protein kinase C theta type (Homo sapiens) (UniProt Q04759); experiment: Inhibition of recombinant full-length human PKCtheta assessed as residual activity at 10 uM using histone H1as substrate measured after 40 mins in presence of [gamma33P]ATP by scintillation counting method
[4] = biological target: Protein kinase C delta type (Homo sapiens) (UniProt Q05655); experiment: Inhibition of recombinant human PKCdelta (2 to end residues) assessed as residual activity at 10 uM using ERMRPRKRQGSVRRRV as substrate measured after 40 mins in presence of [gamma33P]ATP by scintillation counting method
[5] = tested on: Hepatocyte growth factor receptor (Homo sapiens), P08581 [Y1230H]; experiment: Inhibition of recombinant human MET A1209G/V1290L/Y1248H mutant (974 to end residues) assessed as residual activity at 10 uM using KKKGQEEEYVFIE as substrate measured after 40 mins in presence of [gamma33P]ATP by scintillation counting method
Homo sapiens [6] = organism: Homo sapiens; experiment: Inhibition of recombinant human Mer H628Q/R794A mutant (557 to 882 residues) assessed as residual activity at 10 uM using GGMEDIYFEFMGGKKK as substrate measured after 40 mins in presence of [gamma33P]ATP by scintillation counting method
Homo sapiens [7] = organism: Homo sapiens; experiment: Inhibition of recombinant full-length human PI3K p110delta/p85alpha N253S mutant assessed as residual activity at 10 uM using phosphatidylinositol-4, 5-bisphosphate as substrate measured after 40 mins by fluorescence assay
Homo sapiens [8] = organism: Homo sapiens; experiment: Inhibition of recombinant human EphB2 A848S/ K918E mutant (560 to end residues) assessed as residual activity at 10 uM using KTFCGTPEYLAPEVRREPRILSEEEQEMFRDFDYIADWC as substrate measured after 40 mins in presence of [gamma33P]ATP by scintillation counting method
[9] = biological target: Dual specificity protein kinase CLK2 (Homo sapiens) (UniProt P49760); experiment: Inhibition of recombinant human CLK2 (138 to end residues) assessed as residual activity at 10 uM using YRRAAVPPSPSLSRHSSPHQS(p)EDEEE as substrate measured after 40 mins in presence of [gamma33P]ATP by scintillation counting method
HCT-116 [10] = experiment: Induction of cell cycle arrest in human HCT116 cells assessed as accumulation at G2/M phase after 24 hrs by propidium iodide-staining based flow cytometry; type: functional
SW-620 [11] = experiment: Cell cycle arrest in human SW620 cells assessed as up regulation of CyclinB1 expression up to 150 nM after 24 hrs by Western blot analysis; type: functional, cell-based
HCT-116 [12] = experiment: Induction of apoptosis in human HCT116 cells assessed as early apoptotic cells at 25 nM measured after 48 hrs by Annexin V-FITC/propidium iodide staining-based flow cytometry (reference value: 0.418%); type: functional
[13] = biological target: Ephrin type-A receptor 1 (Homo sapiens) (UniProt P21709); experiment: Inhibition of recombinant human EphA1 (568 to end residues) assessed as residual activity at 10 uM using KKKSPGEYVNIEF as substrate measured after 40 mins in presence of [gamma33P]ATP by scintillation counting method
[14] = biological target: MAP kinase-interacting serine/threonine-protein kinase 2 (Homo sapiens) (UniProt Q9HBH9); experiment: Inhibition of recombinant full-length human Mnk2 assessed as residual activity at 10 uM using myelin basic protein as substrate measured after 40 mins in presence of [gamma33P]ATP by scintillation counting method
[15] = biological target: MAPK/MAK/MRK overlapping kinase (Homo sapiens) (UniProt Q9UQ07); experiment: Inhibition of recombinant human MOK (1 to 343 residues) assessed as residual activity at 10 uM using RSRSRSRSRSRSRSR as substrate measured after 40 mins in presence of [gamma33P]ATP by scintillation counting method
[16] = biological target: Ribosomal protein S6 kinase alpha-4 (Homo sapiens) (UniProt O75676); experiment: Inhibition of recombinant human MSK2 (2 to end residues) assessed as residual activity at 10 uM using GRPRTSSFAEGKK as substrate measured after 40 mins in presence of [gamma33P]ATP by scintillation counting method
[17] = biological target: Serine/threonine-protein kinase pim-1 (Homo sapiens) (UniProt P11309); experiment: Inhibition of recombinant full-length human Pim1 assessed as residual activity at 10 uM using KKRNRTLTV as substrate measured after 40 mins in presence of [gamma33P]ATP by scintillation counting method
[18] = biological target: Serine/threonine-protein kinase PLK3 (Homo sapiens) (UniProt Q9H4B4); experiment: Inhibition of recombinant human Plk3 (19 to 301 residues) assessed as residual activity at 10 uM using casein as substrate measured after 40 mins in presence of [gamma33P]ATP by scintillation counting method
[19] = tested on: Proto-oncogene tyrosine-protein kinase receptor Ret (Homo sapiens), P07949 [V804L]; experiment: Inhibition of human Ret V804L mutant (658 to end residues) using KKKSPGEYVNIEFG as substrate measured after 40 mins in presence of [gamma33P]ATP by scintillation counting method; parameters: scale not given: the % may be the effect or the level left
[20] = biological target: SRSF protein kinase 2 (Homo sapiens) (UniProt P78362); experiment: Inhibition of human SRPK2 (46 to end residues) using RSRSRSRSRSRSRSR as substrate measured after 40 mins in presence of [gamma33P]ATP by scintillation counting method; parameters: scale not given: the % may be the effect or the level left
[21] = biological target: Serine/threonine-protein kinase 32A (Homo sapiens) (UniProt Q8WU08); experiment: Inhibition of recombinant full-length human STK32A assessed as residual activity at 10 uM using casein as substrate measured after 120 mins in presence of [gamma33P]ATP by scintillation counting method
[22] = biological target: DNA-dependent protein kinase catalytic subunit (Homo sapiens) (UniProt P78527); experiment: Inhibition of recombinant full-length human DNA-PK assessed as residual activity at 10 uM using GST-cMyc-p53 as substrate measured after 40 mins by fluorescence assay
[23] = biological target: Phosphatidylinositol 5-phosphate 4-kinase type-2 alpha (Homo sapiens) (UniProt P48426); experiment: Inhibition of recombinant full-length human PIP4K2alpha assessed as residual activity at 10 uM using phosphatidylinositol 5-phosphate as substrate measured after 40 mins by HTRF assay
SW-620 [24] = experiment: Induction of apoptosis in human SW620 cells assessed as late apoptotic cells at 100 nM measured after 48 hrs by Annexin V-FITC/propidium iodide staining-based flow cytometry (reference value: 1.8%); type: functional
HepG2 = experiment: cells; conditions: Homo sapiens, HepG2, 72 h

Chain of Ephrin type-A receptor 1 (Homo sapiens) (P21709 whole entry): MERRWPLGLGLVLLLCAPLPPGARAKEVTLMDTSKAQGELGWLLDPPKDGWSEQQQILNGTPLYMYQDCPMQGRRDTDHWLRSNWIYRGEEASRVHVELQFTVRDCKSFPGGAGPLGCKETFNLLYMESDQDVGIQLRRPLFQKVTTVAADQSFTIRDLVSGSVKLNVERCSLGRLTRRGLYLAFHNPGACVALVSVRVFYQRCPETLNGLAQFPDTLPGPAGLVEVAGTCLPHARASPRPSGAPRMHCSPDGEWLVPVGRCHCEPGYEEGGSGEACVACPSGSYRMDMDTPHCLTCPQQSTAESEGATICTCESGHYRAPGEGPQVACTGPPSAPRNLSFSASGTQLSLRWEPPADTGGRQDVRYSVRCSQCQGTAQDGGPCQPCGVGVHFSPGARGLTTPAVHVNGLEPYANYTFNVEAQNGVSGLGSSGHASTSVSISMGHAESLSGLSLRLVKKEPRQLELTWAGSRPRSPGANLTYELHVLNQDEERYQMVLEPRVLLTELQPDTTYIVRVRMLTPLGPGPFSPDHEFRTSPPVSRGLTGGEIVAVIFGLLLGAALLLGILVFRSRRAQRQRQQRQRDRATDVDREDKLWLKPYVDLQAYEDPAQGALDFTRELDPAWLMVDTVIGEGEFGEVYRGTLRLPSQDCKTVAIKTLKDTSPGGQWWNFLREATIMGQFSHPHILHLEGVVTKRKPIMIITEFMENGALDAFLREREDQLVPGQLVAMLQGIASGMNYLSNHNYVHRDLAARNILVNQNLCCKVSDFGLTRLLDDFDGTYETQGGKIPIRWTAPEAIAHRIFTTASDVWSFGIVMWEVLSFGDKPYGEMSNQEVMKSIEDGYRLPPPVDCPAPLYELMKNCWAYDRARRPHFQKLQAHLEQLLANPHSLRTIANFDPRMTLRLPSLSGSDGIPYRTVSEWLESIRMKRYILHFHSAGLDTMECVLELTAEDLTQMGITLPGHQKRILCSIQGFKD
Chain of Ribosomal protein S6 kinase alpha-4 (Homo sapiens) (O75676 whole entry, looked up): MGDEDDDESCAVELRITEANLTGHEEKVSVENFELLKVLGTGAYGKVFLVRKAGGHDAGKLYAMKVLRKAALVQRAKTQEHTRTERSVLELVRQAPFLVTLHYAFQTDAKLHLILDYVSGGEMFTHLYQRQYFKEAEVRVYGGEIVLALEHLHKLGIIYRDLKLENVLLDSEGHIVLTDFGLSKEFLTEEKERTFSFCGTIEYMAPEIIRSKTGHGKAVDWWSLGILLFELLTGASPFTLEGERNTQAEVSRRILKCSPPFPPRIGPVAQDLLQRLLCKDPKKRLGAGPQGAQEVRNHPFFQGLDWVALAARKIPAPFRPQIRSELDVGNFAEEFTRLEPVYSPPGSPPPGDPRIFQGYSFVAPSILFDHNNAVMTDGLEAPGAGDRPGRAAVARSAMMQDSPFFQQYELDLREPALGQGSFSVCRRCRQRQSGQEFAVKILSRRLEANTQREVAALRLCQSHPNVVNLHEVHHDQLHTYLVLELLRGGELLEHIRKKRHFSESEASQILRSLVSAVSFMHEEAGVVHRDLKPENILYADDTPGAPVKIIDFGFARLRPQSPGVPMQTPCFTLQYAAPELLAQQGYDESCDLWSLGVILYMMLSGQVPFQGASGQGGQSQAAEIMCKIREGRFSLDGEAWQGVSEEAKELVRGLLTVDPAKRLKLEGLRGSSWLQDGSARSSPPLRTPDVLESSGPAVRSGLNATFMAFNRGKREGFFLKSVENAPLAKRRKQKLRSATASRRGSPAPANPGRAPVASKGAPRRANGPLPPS
Chain of Serine/threonine-protein kinase PLK3 (Homo sapiens) (Q9H4B4 whole entry, looked up, the tested form may be a part): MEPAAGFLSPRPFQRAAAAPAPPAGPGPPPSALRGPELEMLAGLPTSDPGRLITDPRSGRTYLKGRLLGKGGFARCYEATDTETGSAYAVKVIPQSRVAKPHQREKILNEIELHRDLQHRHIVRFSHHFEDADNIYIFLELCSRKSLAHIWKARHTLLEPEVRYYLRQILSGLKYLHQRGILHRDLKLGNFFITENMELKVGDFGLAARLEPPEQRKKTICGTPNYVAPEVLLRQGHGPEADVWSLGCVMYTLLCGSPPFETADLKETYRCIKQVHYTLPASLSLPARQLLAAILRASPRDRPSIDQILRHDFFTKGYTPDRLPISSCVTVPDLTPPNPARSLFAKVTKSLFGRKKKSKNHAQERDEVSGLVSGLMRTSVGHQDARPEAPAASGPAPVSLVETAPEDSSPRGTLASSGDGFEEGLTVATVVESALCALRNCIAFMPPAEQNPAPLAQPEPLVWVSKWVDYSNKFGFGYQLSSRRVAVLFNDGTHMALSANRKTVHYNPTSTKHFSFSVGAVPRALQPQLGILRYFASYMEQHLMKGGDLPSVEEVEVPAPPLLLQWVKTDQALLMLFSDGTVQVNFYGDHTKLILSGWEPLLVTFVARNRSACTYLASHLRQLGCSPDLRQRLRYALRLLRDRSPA
Chain of Proto-oncogene tyrosine-protein kinase receptor Ret (Homo sapiens), P07949 [V804L] (P07949 whole entry V804L): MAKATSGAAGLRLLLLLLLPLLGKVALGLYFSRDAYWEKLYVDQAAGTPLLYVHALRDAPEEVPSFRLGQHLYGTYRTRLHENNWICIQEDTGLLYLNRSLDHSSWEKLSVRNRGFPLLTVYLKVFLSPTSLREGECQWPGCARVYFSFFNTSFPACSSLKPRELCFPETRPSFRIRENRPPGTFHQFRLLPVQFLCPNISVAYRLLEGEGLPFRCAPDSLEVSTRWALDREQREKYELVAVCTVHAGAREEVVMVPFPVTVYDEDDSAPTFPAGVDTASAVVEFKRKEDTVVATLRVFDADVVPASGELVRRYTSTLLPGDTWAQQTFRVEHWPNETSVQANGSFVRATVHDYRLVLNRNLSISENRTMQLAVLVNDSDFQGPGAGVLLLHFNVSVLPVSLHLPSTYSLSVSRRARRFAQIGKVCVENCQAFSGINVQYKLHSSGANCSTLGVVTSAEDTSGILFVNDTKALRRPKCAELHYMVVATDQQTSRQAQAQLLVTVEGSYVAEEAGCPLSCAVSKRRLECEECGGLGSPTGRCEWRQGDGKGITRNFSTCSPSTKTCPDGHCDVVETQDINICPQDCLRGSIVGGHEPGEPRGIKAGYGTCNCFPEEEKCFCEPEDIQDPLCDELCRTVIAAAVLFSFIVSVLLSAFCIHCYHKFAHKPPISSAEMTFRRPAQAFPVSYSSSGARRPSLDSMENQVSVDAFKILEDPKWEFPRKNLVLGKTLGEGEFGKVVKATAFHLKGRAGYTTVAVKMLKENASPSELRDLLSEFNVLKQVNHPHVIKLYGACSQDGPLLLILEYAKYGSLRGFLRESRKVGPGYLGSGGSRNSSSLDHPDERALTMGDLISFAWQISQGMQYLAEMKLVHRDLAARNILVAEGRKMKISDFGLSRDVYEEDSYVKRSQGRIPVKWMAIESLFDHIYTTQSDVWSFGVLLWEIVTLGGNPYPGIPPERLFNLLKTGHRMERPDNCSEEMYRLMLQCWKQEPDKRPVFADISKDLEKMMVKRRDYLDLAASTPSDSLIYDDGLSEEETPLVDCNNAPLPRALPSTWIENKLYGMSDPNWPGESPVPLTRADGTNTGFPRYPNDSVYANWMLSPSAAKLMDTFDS
Chain of Serine/threonine-protein kinase pim-1 (Homo sapiens) (P11309 whole entry, looked up, the tested form may be a part): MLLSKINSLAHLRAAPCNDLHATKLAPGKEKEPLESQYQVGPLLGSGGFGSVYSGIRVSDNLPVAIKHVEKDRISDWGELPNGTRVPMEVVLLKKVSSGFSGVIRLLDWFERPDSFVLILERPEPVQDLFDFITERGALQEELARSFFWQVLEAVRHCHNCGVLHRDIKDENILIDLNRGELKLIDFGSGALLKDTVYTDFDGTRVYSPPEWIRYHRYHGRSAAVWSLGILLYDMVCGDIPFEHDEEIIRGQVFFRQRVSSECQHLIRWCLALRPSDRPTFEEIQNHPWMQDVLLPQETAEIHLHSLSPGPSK
Chain of Protein kinase C delta type (Homo sapiens) (Q05655 whole entry, looked up): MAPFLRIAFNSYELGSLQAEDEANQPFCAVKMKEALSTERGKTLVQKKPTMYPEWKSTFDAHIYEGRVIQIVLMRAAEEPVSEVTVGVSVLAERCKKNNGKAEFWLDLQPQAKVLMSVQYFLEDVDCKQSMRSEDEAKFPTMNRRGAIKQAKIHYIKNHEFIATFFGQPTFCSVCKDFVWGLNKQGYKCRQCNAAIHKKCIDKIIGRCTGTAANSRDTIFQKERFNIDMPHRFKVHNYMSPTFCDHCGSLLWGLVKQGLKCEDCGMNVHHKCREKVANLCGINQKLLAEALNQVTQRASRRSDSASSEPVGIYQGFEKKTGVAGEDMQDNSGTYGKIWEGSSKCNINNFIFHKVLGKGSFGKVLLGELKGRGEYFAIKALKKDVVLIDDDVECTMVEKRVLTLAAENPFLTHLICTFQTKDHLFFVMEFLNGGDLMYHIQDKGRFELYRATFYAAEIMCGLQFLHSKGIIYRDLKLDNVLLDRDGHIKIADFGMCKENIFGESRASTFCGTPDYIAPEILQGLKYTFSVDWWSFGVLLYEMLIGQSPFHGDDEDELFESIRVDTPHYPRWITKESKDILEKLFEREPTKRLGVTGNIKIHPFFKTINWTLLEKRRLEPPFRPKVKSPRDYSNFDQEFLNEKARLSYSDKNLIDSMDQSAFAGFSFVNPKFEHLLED
Chain of Serine/threonine-protein kinase Sgk1 (Homo sapiens), O00141 [S422D] (O00141 whole entry S422D): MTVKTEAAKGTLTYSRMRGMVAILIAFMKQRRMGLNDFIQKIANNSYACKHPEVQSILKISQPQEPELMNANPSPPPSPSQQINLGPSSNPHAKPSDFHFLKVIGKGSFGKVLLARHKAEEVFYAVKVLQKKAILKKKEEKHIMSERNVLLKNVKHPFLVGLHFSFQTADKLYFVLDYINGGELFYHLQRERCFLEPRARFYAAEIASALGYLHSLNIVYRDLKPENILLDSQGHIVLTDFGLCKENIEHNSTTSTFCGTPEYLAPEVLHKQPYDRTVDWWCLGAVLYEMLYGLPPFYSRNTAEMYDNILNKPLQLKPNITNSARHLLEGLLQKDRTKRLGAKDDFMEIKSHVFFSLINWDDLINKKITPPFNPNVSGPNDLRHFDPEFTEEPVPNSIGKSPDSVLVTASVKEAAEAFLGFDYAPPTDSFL

SMILES: Cc1cc(C)c(CNc2nc(Cl)nc3c2ncn3C2CCCC2)c(=O)[nH]1
- Activity [1]: 136%
- Activity [2]: 112%
- Activity [3]: 103%
- Activity [4]: 111%
- Activity [5]: 99%
- Activity (Homo sapiens [6]): 109%
- Activity (Homo sapiens [7]): 99.5%
- Activity (Homo sapiens [8]): 93.5%
- Activity [9]: 132%
- Activity (HCT-116 [10]): Dose-dependent effect
- Activity (SW-620 [11]): Active
- Activity (HCT-116 [12]): 1.54%
- Activity [13]: 102%
- Activity [14]: 88%
- Activity [15]: 104%
- Activity [16]: 120%
- Activity [17]: 106%
- Activity [18]: 99.5%
- Activity [19]: 106%
- Activity [20]: 106%
- Activity [21]: 100%
- Activity [22]: 99%
- Activity [23]: 108%
- Activity (SW-620 [24]): 23.1%
- IC50 (HepG2): 80 nM
